melting point: 123 to 125 °C
Compound: CCC(CC)Nc1c(Br)c(CBr)nc2c1nnn2-c1c(C)cc(C)cc1C [Example 6, [6-Bromo-5-bromomethyl-3-(2,4,6-trimethyl-phenyl)-3H-[1,2,3]triazolo[4,5-b]pyridin-7-yl]-(1-ethyl-propyl)-amine]
